The nature of the data set: Solubility of the active ingredients in water. Format: physicochemical. The conditions noted are these: thermodynamic from solid. As to the method:
The invention is suitable for active ingredients which have a solubility in water of at least 10 g/l, preferably at least 30 g/l, particularly preferably of at least 50 g/l, especially preferably of at least 100 g/l, 200 g/l, 300 g/l or 400 g/l at 20° C. (solubility in water based on standard methods such as, for example, Pharmeuropa—Technical Guide for the Elaboration of Monographs, 3rd Edition (1999), Chapter IV, Appendix IV (incorporated by reference) with vigorous shaking for 1 min, leaving to stand for 15 min at 20° C. in purified water). These ranges include all intermediate values and subranges.

Usually solubility stands for the dissolved amount per volume that the medium holds.

The structures appear in SMILES notation. ≈ marks a conversion by molar mass, not a printed value. Structures can show the parent of a compound that is named as a salt. Where two headings read alike, the source gives them in different places.

As to `Cn1c(=O)c2[nH]cnc2n(C)c1=O` [Theophylline], the solubility at 15 min (at 20° C., Pharmeuropa Technical Guide method, shaking for 15 min, read-out: solubility in water) stood at 8.4 mg/mL (≈ 46.6 mM). Where the note is “20 °C”, `CNC[C@H](O)c1cccc(O)c1` [Phenylephrine hydrochloride] had a solubility at 15 min of 500 mg/mL. Take `CC(C)(C)NCC(O)c1cc(O)cc(O)c1` (stereo not drawn) [Terbutaline sulphate]: the solubility at 15 min (20 °C) came out at 500 mg/mL.

The values above are taken from US8465769B2, “Pharmaceutical composition with controlled active ingredient release for active ingredients with good solubility in water” (Evonik Roehm GmbH, priority 2006, dated 2013).
